Laboratory results taken from ChEMBL document CHEMBL4619786, “Discovery of Novel Resorcinol Dibenzyl Ethers Targeting the Programmed Cell Death-1/Programmed Cell Death-Ligand 1 Interaction as Potential Anticancer Agents” (J Med Chem, 2020).

Assays:
Mus musculus [1] = assay: (§1) Immunostimulatory activity in mouse B16/F10 cells implanted BALB/c mouse assessed as increase in activation of tumor-microenvironment mediated helper T cells in tumor by measuring CD3-positive/CD4-positive cell population at 50 mg/kg, ig administered once daily via gavage for 15 days measured 24 hrs post-last dose by immunostaining based flow cytometry (reference value: 6.15%); type: functional
[2] = Half life in Sprague-Dawley rat at 1 mg/kg, iv by LC-MS/MS analysis; type: ADME, organism-based; conditions: in vivo
Mus musculus [3] = assay: as §1, with “activated cytotoxic” for “helper”, “CD3-positive/CD8-positive” for “CD3-positive/CD4-positive”, “25” for “50”, “4.18%)” for “6.15%)”; type: functional
Mus musculus [4] = assay: as §1, with “activated cytotoxic” for “helper”, “CD8-positive” for “CD3-positive/CD4-positive”, “2.2%)” for “6.15%)”; type: functional
Mus musculus [5] = assay: as §1, with “activated cytotoxic” for “helper”, “CD8-positive” for “CD3-positive/CD4-positive”, “100” for “50”, “2.2%)” for “6.15%)”; type: functional
[6] = Toxicity in mouse B16/F10 cells implanted […] mouse assessed as increase in body weight at 25 to 100 mg/kg, ig administered once daily via gavage for 15 days measured during compound dosing; type: organism-based; conditions: in vivo, po, 360 h
B16-F10 [7] = assay: Antitumor activity against mouse B16/F10 cells implanted in BALB/c mouse assessed as tumor weight at 100 mg/kg, ig administered once daily via gavage for 15 days measured 24 hrs post-last dose (reference value: 0.84 +/- 0.32 g); type: functional
Mus musculus [8] = assay: Effect on activated cytotoxic T cell population in mouse B16/F10 cells implanted […] mouse assessed as CD3-positive cell population in spleen at 25 mg/kg, ig administered once daily via gavage for 15 days measured 24 hrs post-last dose by immunostaining based flow cytometry (reference value: 27.5 %); type: organism-based; conditions: in vivo, po
[9] = Toxicity in mouse B16/F10 cells implanted […] mouse assessed as histological changes in kidney at 25 to 100 mg/kg, ig administered once daily via gavage for 15 days measured 24 hrs post-last dose by H and E staining based microscopic analysis; type: organism-based; conditions: in vivo, po
Mus musculus [10] = assay: as §1, with “100” for “50”; type: functional
[11] = target: Programmed cell death protein 1/Programmed cell death 1 ligand 1 (Homo sapiens, UniProt Q9NZQ7); assay: Inhibition of human PD1/PDL1 protein-protein interaction by HTRF assay; type: protein-complex assay
Sequence of Programmed cell death protein 1/Programmed cell death 1 ligand 1 (Q15116 whole entry): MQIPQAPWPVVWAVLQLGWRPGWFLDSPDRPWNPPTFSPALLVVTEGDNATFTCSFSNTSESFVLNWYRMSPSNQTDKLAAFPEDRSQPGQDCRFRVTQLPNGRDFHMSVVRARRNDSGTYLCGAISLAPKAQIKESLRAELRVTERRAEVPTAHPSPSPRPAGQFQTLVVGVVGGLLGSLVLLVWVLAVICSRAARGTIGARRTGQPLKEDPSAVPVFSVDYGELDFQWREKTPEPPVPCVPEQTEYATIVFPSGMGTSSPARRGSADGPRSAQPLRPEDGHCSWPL
Sequence of Programmed cell death protein 1/Programmed cell death 1 ligand 1 (Q9NZQ7 whole entry): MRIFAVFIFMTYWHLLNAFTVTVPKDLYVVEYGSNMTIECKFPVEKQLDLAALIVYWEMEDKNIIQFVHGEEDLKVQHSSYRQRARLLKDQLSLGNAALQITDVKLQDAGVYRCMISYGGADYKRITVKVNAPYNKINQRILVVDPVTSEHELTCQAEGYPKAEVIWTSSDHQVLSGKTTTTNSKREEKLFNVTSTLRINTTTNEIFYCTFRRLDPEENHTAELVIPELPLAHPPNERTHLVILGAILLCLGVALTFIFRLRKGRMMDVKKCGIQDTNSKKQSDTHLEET

Mus musculus [12] = assay: Effect on activated cytotoxic T cell population in mouse B16/F10 cells implanted […] mouse assessed as spleen cell population at 50 mg/kg, ig administered once daily via gavage for 15 days measured 24 hrs post-last dose by immunostaining based flow cytometry (reference value: 57.9 %); type: organism-based; conditions: in vivo, po
Mus musculus [13] = assay: Effect on spleen helper T cell population in mouse B16/F10 cells implanted […] mouse assessed as CD3-positive/CD4-positive cell population at 25 mg/kg, ig administered once daily via gavage for 15 days measured 24 hrs post-last dose by immunostaining based flow cytometry (reference value: 27.7%); type: ADME, organism-based; conditions: in vivo, po
B16-F10 [14] = assay: Antitumor activity against mouse B16/F10 cells implanted in BALB/c mouse assessed as tumor growth inhibition at 100 mg/kg, ig administered once daily via gavage for 15 days relative to control; type: functional; conditions: B16-F10, po, 360 h, read-out: TGI
[15] = Cmax in Sprague-Dawley rat at 1 mg/kg, iv by LC-MS/MS analysis; type: ADME, organism-based; set-up: dose 1 mg/kg, route intravenous; conditions: in vivo
B16-F10 [16] = assay: Antitumor activity against mouse B16/F10 cells implanted in BALB/c mouse assessed as tumor growth inhibition at 25 mg/kg, ig administered once daily via gavage for 15 days relative to control; type: functional; conditions: B16-F10, po, 360 h, read-out: TGI
[17] = Toxicity in mouse B16/F10 cells implanted […] mouse assessed as histological changes in liver at 25 to 100 mg/kg, ig administered once daily via gavage for 15 days measured 24 hrs post-last dose by H and E staining based microscopic analysis; type: organism-based; conditions: in vivo, po
[18] = Tmax in Sprague-Dawley rat at 10 mg/kg, po by LC-MS/MS analysis; type: ADME, organism-based; conditions: in vivo
Mus musculus [19] = assay: as §1, with “CD3-positive” for “CD3-positive/CD4-positive”, “100” for “50”, “18.9%)” for “6.15%)”; type: functional
Mus musculus [20] = assay: Effect on activated cytotoxic T cell population in mouse B16/F10 cells implanted […] mouse assessed as CD8-positive cell population in spleen at 50 mg/kg, ig administered once daily via gavage for 15 days measured 24 hrs post-last dose by immunostaining based flow cytometry (reference value: 0.383 %); type: organism-based; conditions: in vivo, po
[21] = Toxicity in […] cells xenografted BALB/c mouse assessed as decrease in body weight at 25 mg/kg, ip administered once daily for 14 days measured daily during compound dosing; type: organism-based; conditions: in vivo, 336 h
[22] = target: Programmed cell death protein 1/Programmed cell death 1 ligand 1 (Homo sapiens) (UniProt Q15116+Q9NZQ7); assay: Ratio of EC50 for inhibition of human PD1/PDL1 protein-protein interaction in human PBMC-derived CD3-positive T cells co-cultured with human Hep3B cells expressing human PDL1/OS-8 assessed as increase in IFNgamma secretion to IC50 for inhibition of human PD1/PDL1 protein-protein interaction
Mus musculus [23] = assay: Effect on spleen helper T cell population in mouse B16/F10 cells implanted […] mouse assessed as CD3-positive cell population at 100 mg/kg, ig administered once daily via gavage for 15 days measured 24 hrs post-last dose by immunostaining based flow cytometry (reference value: 14.7%); type: organism-based; conditions: in vivo, po
[24] = AUC (0 to infinity) in Sprague-Dawley rat at 10 mg/kg, po by LC-MS/MS analysis; type: ADME, organism-based; set-up: dose 10 mg/kg, time infinity, route oral; conditions: in vivo
A549 = assay: Cytotoxicity against human A549 cells assessed as reduction in cell viability measured after 48 hrs by MTT assay; type: functional, cell-based; conditions: A549, 48 h
Mus musculus [25] = assay: Effect on spleen helper T cell population in mouse B16/F10 cells implanted […] mouse assessed as CD3-positive cell population at 25 mg/kg, ig administered once daily via gavage for 15 days measured 24 hrs post-last dose by immunostaining based flow cytometry (reference value: 14.7%); type: organism-based; conditions: in vivo, po

Cc1c(COc2cc(OCc3cccc(C#N)c3)c(CNC(C)(C)C(=O)O)cc2Cl)cccc1-c1ccccc1
Activity (Mus musculus [1]): 11.7% | half-life [2]: 1.5 h | Activity (Mus musculus [3]): 12.4% | Activity (Mus musculus [4]): 5.76% | Activity (Mus musculus [5]): 13.5% | Activity [6]: Toxic | Activity (B16-F10 [7]): 0.16 g | Activity (Mus musculus [8]): 24.3% | Activity [9]: Non-Toxic | Activity (Mus musculus [10]): 13.8% | IC50 [11]: 0.0125 µM | Activity (Mus musculus [12]): 55.4% | Activity (Mus musculus [13]): 24.4% | inhibition in vivo at 100 mg/kg (B16-F10 [14]): 80.9% | Cmax [15]: 1750 ng/mL | inhibition in vivo at 25 mg/kg (B16-F10 [16]): 51.1% | Activity [17]: Non-Toxic | Tmax [18]: 0.6 h | Activity (Mus musculus [19]): 28% | Activity (Mus musculus [20]): 0.374% | Activity [21]: Non-Toxic | Ratio [22]: 240 | Activity (Mus musculus [23]): 12.8% | AUC(0-inf) [24]: 520 ng·h/mL | IC50 (A549): > 10 µM | Activity (Mus musculus [25]): 13.8%
